This is an account of results in patent publication US20220274979A1 (Bayer Pharma Aktiengesellschaft, priority 2018, published 2022).

Usually IC50 stands for the midpoint of a concentration-inhibition curve. Read a high IC50 as a need for much substance. Usually inhibition stands for the drop in the measured response relative to a control, in per cent.

For assay [1], the target named is T1, hSOS1 (hSOS1-mediated nucleotide exchange of hK-RasG12C) (Homo sapiens, UniProt Q07889).
T1 construct: hSOS1 (amino acid 564-1049); made in house; host or cells: E. coli BL21 (DE3)
T1 sequence (Q07889 with tags, fused parts or gaps): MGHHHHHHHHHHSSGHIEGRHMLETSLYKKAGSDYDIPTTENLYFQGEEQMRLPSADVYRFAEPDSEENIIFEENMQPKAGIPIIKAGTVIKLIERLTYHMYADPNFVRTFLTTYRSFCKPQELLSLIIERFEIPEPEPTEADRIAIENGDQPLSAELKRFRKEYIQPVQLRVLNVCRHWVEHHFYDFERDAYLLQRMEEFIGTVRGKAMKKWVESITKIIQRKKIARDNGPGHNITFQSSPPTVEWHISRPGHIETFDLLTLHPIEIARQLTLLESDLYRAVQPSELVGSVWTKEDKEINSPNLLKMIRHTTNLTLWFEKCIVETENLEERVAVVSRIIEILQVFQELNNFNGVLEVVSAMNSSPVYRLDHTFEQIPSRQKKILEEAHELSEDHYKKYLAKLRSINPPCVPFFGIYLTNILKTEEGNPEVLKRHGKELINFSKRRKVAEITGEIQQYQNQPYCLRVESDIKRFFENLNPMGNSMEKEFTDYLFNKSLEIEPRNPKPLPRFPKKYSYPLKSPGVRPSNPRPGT
Kind of assay: Biochemical Assay 2: hK-RasG12C activation assay by hSOS1 at high GTP concentration (HTRF nucleotide exchange). To be noted: high GTP (50 μM GTP). An excerpt: Biochemical Assay 2: hK-RasG12C Activation Assay by hSOS1 at High GTP Concentration
This assay quantifies human SOS1-mediated nucleotide exchange of human K-Ras^G12C (hK-RasG12C) preloaded with a fluorescent […] and in presence of an excess of free GTP. Loaded hK-RasG12C generates a high HTRF-signal by energy transfer from antiGST-Terbium (FRET donor) bound to hK-Ras to the loaded fluorescent GDP analog (FRET-acceptor). hSOS1 activity exchanges the fluorescent GDP for non-fluorescent GTP and therefore leads to a reduction of the HTRF signal.
The fluorescent GDP-analog EDA-GDP-Dy647P1 (2′/3′-O-(2-Aminoethyl-carbamoyl)-guanosine-5′-diphosphate labelled with Dy647P1 (Dyomics GmbH, Germany)) was synthesized by Jena Biosciences GmbH (Germany) and supplied as a 1 mM aqueous solution.
Concentrations of protein batches used were optimized to be within the linear range of the HTRF signal.
Addition of 20 μl 1 M MgCl2 (Sigma) to final 40 mM and store on ice. Purification into buffer (10 mM HEPES pH 7.4 (Applichem), 150 mM NaCl (Sigma), 5 mM MgCl2 (Sigma)) by use of a PD-Minitrap desalting column (GE Healthcare). Concentration of 1 ml purified hK-Ras-GDP-Dy647 is approx. 4-5 μM.
The assay buffer contained 10 mM HEPES pH 7.4 (Applichem), 150 mM NaCl (Sigma), 5 mM MgCl2 (Sigma), 1 mM DTT (Thermofisher), 0.05% BSA Fraction V, pH 7.0, (ICN Biomedicals), 0.0025% (v/v) Igepal (Sigma).
A Ras working solution was prepared in assay buffer containing typically 80 nM loaded GST-hK-RasG12C-EDA-GDP-Dy647P1 and 2 nM antiGST-Tb (Cisbio, France).
Alternatively, the inhibitor control solution was prepared by supplementing the hSOS1 working solution with 20 μM of 6,7-dimethoxy-N-[(1R)-1-(1-naphthyl)ethyl]quinazolin-4-amine which was used to calibrate the assay.
(§1) Fifty nl of a 100-fold concentrated solution of the test compound in DMSO were transferred into a black microtiter test plate (384 or 1536, Greiner Bio-One, Germany) For this, either a Hummingbird liquid handler (Digilab, Mass., USA) or an Echo acoustic system (Labcyte, Calif., USA) was used.
All steps of the assay were performed at 20° C. A volume of 2.5 μl of the Ras working solution was added to all wells of the test plate using a Multidrop dispenser (Thermo Labsystems). After 2 min. preincubation, 2.5 μl of the hSOS1 working solution were added to all wells except for those wells at the side of the test plate that were subsequently filled with 2.5 μl of the inhibitor control solution. After 20 min. incubation the fluorescence was measured with a Pherastar (BMG, Germany) using the HTRF module (excitation 337 nm, emission 1:620 nm, emission 2:665 nm).
(§2) IC50 values were calculated by 4-Parameter fitting using a commercial software package (Genedata Screener, Switzerland).

For assay [2], the target named is T2, hK-RasG12C - hSOS1 interaction (Homo sapiens, UniProt Q07889).
T2 construct: hSOS1 (amino acid 564-1049); made in house; host or cells: E. coli BL21 (DE3)
T2 sequence (Q07889 with tags, fused parts or gaps): T1 sequence (Q07889 with tags, fused parts or gaps)
Kind of assay: Biochemical Assay 1: hK-RasG12C interaction assay with hSOS1 (HTRF). Format: binding. As to conditions: for inhibition at 20 µM: read-out: Assay 1 (hKRAS, hSOS Interaction) activity (expressed as IC50, or as % inhibition at 20 μM). Here is the method:
Biochemical Assay 1: hK-RasG12C Interaction Assay with hSOS1
This assay quantifies the equilibrium interaction of human SOS1 (hSOS1) with human K-Ras^G12C (hK-RasG12C). Detection of the interaction is achieved by measuring homogenous time-resolved fluorescence resonance energy transfer (HTRF) from antiGST-Europium (FRET donor) bound to GST-K-RasG12C to anti-6His-XL665 bound to His-tagged hSOS1 (FRET-acceptor).
The assay buffer contained 5 mM HEPES pH 7.4 (Applichem), 150 mM NaCl (Sigma), 10 mM EDTA (Promega), 1 mM DTT (Thermofisher), 0.05% BSA Fraction V, pH 7.0, (ICN Biomedicals), 0.0025% (v/v) Igepal (Sigma) and 100 mM KF (FLUKA).
Concentrations of protein batches used were optimized to be within the linear range of the HTRF signal. A Ras working solution was prepared in assay buffer containing typically 10 nM GST-hK-RasG12C and 2 nM antiGST-Eu(K) (Cisbio, France). A SOS1 working solution was prepared in assay buffer containing typically 20 nM His-hSOS1 and 10 nM anti-6His-XL665 (Cisbio, France). An inhibitor control solution was prepared in assay buffer containing 10 nM anti-6His-XL665 without hSOS1.
as §1
All steps of the assay were performed at 20° C. A volume of 2.5 μl of the Ras working solution was added to all wells of the test plate using a Multidrop dispenser (Thermo Labsystems). After […] preincubation, 2.5 μl of the SOS1 working solution were added to all wells except for those wells at the side of the test plate that were subsequently filled with 2.5 μl of the inhibitor control solution. After […] incubation the fluorescence was measured with a Pherastar (BMG, Germany) using the HTRF module (excitation 337 nm, emission 1:620 nm, emission 2:665 nm).
as §2
(TR-FRET usually uses a lanthanide donor and a delayed reading to cut background.)

Each structure is given as a SMILES string. Read-outs that look alike come from different tables or passages of the source. A value given as a limit tells only on which side of the number the result lay.

Regarding `CC(=O)NC1CCN(c2cc3c(N[C@H](C)c4cccc(Br)c4)nc(C)nc3cn2)C1` (mixture of isomers) [Example 42, N-[1-(4-{[(1R)-1-(3-bromophenyl)ethyl]amino}-2-methylpyrido[3,4-d]pyrimidin-6-yl)pyrrolidin-3-yl]acetamide], the IC50 was determined as 215 nM in assay [1] and 187 nM in assay [2] (values expressed as IC50).
For `Cc1nc(NC(C)c2ccc(-c3ccccc3CN(C)C)s2)c2cc(C3CCN(C)C3=O)ncc2n1` (mixture of isomers) [Example 69, 3-(4-{[1-(5-{2-[(dimethylamino)methyl]phenyl}thiophen-2-yl)ethyl]amino}-2-methylpyrido[3,4-d]pyrimidin-6-yl)-1-methylpyrrolidin-2-one], the IC50 in assay [1] worked out at 98.3 nM; in assay [2] (values expressed as IC50) it was 62.6 nM.
Turning to `Cc1nc(NC(C)c2ccc(-c3ccccc3CN(C)C)s2)c2cc(C3(O)CCN(C)C3=O)ncc2n1` (mixture of isomers) [Example 85, 3-(4-{[1-(5-{2-[(dimethylamino)methyl]phenyl}thiophen-2-yl)ethyl]amino}-2-methylpyrido[3,4-d]pyrimidin-6-yl)-3-hydroxy-1-methylpyrrolidin-2-one], the IC50 in assay [1] is 214 nM; in assay [2], 83.4 nM.
Turning to `CCOc1cc2c(NC(C)c3cccc4sccc34)nc(C)nc2cn1` (stereo not drawn) [Example 3, N-[1-(1-benzothiophen-4-yl)ethyl]-6-ethoxy-2-methylpyrido[3,4-d]pyrimidin-4-amine], the IC50 turned out to be 262 nM in assay [1] and 215 nM in assay [2] (values expressed as IC50).
The like results for `COc1cc2c(NC(C)c3cccc4sccc34)nc(C)nc2cn1` (stereo not drawn) [Example 4, N-[1-(1-benzothiophen-4-yl)ethyl]-6-methoxy-2-methylpyrido[3,4-d]pyrimidin-4-amine] were, in that order, 423 nM and 355 nM.
As for `CCOc1cc2c(N[C@H](C)c3cccc(Br)c3)nc(C)nc2cn1` [Example 5, N-[(1R)-1-(3-bromophenyl)ethyl]-6-ethoxy-2-methylpyrido[3,4-d]pyrimidin-4-amine], the IC50 in assay [1] was 994 nM; in assay [2] (values expressed as IC50), 491 nM.
For `CCOc1cc2c(N[C@H](C)c3cccc(Cl)c3)nc(C)nc2cn1` [Example 6] the same measures were 1120 nM and 393 nM.
The like results for `CCOc1cc2c(N[C@H](C)c3cccc(S(C)(=O)=O)c3)nc(C)nc2cn1` [Example 7, 6-ethoxy-2-methyl-N-{(1R)-1-[3-(methylsulfonyl)phenyl]ethyl}pyrido[3,4-d]pyrimidin-4-amine] were, in that order, 1300 nM and 633 nM.
The like results for `COc1cc2c(N[C@H](C)c3ccc(F)c(Cl)c3)nc(C)nc2cn1` [Example 8] were, in that order, 4890 nM and 5490 nM.
In assay [1], `Cc1nc(N[C@H](C)c2ccc(F)cc2)c2cc(F)ncc2n1` [Example 9] gave an IC50 of 17900 nM. In assay [2], the inhibition at 20 µM worked out at 54%.
Take `Cc1nc(N[C@H](C)c2ccc(F)cc2)c2cc(OCC3CCOCC3)ncc2n1` [Example 11, N-[1R)-1-(4-fluorophenypethyl]-2-methyl-6-(tetrahydro-2H-pyran-4-ylmethoxy)-pyrido[3,4-d]pyrimidin-4-amine]: the IC50 in assay [1] was determined as 1960 nM; in assay [2] (values expressed as IC50), 1790 nM.
For `COc1cc2c(N[C@H](C)c3ccc(F)c(C4CC4)c3)nc(C)nc2cn1` [Example 12] the same measures were 6450 nM and 5840 nM.
The like results for `CCOc1cc2c(N[C@H](C)c3ccc(Br)cc3)nc(C)nc2cn1` [Example 13, N-[(1R)-1-(4-bromophenyl)ethyl]-6-ethoxy-2-methylpyrido[3,4-d]pyrimidin-4-amine] were, in that order, 1780 nM and 1220 nM.
The like results for `COc1cc2c(NC(C)c3cccc4c3cnn4C)nc(C)nc2cn1` (stereo not drawn) [Example 14, 6-methoxy-2-methyl-N-[1-(1-methyl-1H-indazol-4-yl)ethyl]pyrido[3,4-d]pyrimidin-4-amine] were, in that order, 1950 nM and 1650 nM.
As for `Cc1nc(N[C@H](C)c2ccc(F)cc2)c2cc(OC(C)C)ncc2n1` [Example 15], the IC50 in assay [1] was found to be 1900 nM; in assay [2] (values expressed as IC50), 1480 nM.
The like results for `COc1cc2c(NC(C)c3cccc4nn(C)cc34)nc(C)nc2cn1` (stereo not drawn) [Example 17, 6-methoxy-2-methyl-N-[1-(2-methyl-2H-indazol-4-yl)ethyl]pyrido[3,4-d]pyrimidin-4-amine] were, in that order, 7730 nM and 9190 nM.
For `CCOc1cc2c(N[C@H](C)c3ccc(C#N)cc3)nc(C)nc2cn1` [Example 18, 4-{(1R)-1-[(6-ethoxy-2-methylpyrido[3,4-d]pyrimidin-4-yl)amino]ethyl}benzonitrile] the same measures were 1010 nM and 1110 nM.
Take `Cc1nc(N[C@H](C)c2cccc(Br)c2)c2nc(OCc3ccccc3)ncc2n1` [Example 20, 6-(benzyloxy)-N-[(1R)-1-(3-bromophenyl)ethyl]-2-methylpyrimido[5,4-d]pyrimidin-4-amine]: the IC50 in assay [1] is more than 20000 nM. In assay [2], the inhibition at 20 µM is 30%.
For `Cc1nc(N[C@H](C)c2cccc(Br)c2)c2nc(N(C)C)ncc2n1` [Example 21] the same measures were more than 20000 nM and 26.3%.
Take `Cc1nc(N[C@H](C)c2cccc(Br)c2)c2nc(N3CCOCC3)ncc2n1` [Example 22, N-[(1R)-1-(3-bromophenyl)ethyl]-2-methyl-6-(morpholin-4-yl)pyrimido[5,4-d]pyrimidin-4-amine]: the figures for the concentration for half-maximal inhibition (IC50) in assay [1] and in assay [2] (values expressed as IC50) were 1960 nM and 1620 nM, respectively.
The like results for `CCOc1ncc2nc(C)nc(N[C@H](C)c3cccc(Br)c3)c2n1` [Example 23, N-[(1R)-1-(3-bromophenyl)ethyl]-6-ethoxy-2-methylpyrimido[5,4-d]pyrimidin-4-amine] were, in that order, 4450 nM and 4350 nM.
